Laboratory results from ChEMBL document CHEMBL1144125, “Excavatolides U-Z, new briarane diterpenes from the gorgonian briareum excavatum” (1999).
In brackets after ≈: the same amount, converted by molar mass.

Experiments:
Assay type in all cases: functional
Conditions in all cases: read-out: ED50 (the source's name)
[1] = system: KB; assay: Cytotoxicity against human KB cells
[2] = system: HT-29; assay: Cytotoxicity against human HT-29 cells
[3] = system: P388; assay: Cytotoxicity against mouse P388 cells
[4] = system: A549; assay: Cytotoxicity against human A549 cells

| SMILES | EC50 [1] [µg/mL] | EC50 [2] [µg/mL] | EC50 [3] [µg/mL] | EC50 [4] [µg/mL] |
| --- | --- | --- | --- | --- |
| CCCC(=O)O[C@@H]1C=C[C@]2(C)[C@H](OC(C)=O)C[C@@H](OC(C)=O)/C(C)=C\[C@@H]3OC(=O)[C@@]4(C)O[C@]34[C@H](OC(C)=O)[C@H]2[C@@]1(C)O | > 50 | > 50 | > 50 | > 50 |
| CCC(=O)O[C@@H]1C[C@@H](OC(C)=O)[C@@]2(C)C=C[C@@H](OC(C)=O)[C@](C)(O)[C@@H]2[C@@H](OC(C)=O)[C@]23O[C@]2(C)C(=O)O[C@H]3/C=C\1C | > 50 | 15.1 (≈ 26.1 µM) | 9.5 (≈ 16.4 µM) | > 50 |
| CCCC(=O)O[C@H]1C/C(C)=C\[C@@H]2OC(=O)[C@@]3(C)O[C@]23[C@H](OC(C)=O)[C@H]2[C@@H](C)[C@@H](OC(=O)CC)C[C@H](OC(C)=O)[C@]2(C)[C@@H]1OC(C)=O [EXCAVATOLIDE U] | > 50 | > 50 | > 50 | > 50 |
| CCC(=O)O[C@H]1C[C@H](OC(C)=O)[C@@]2(C)[C@H]([C@H]1C)[C@@H](OC(C)=O)[C@]13O[C@]1(C)C(=O)O[C@H]3/C=C(/C)C[C@H](OC(C)=O)[C@H]2OC(C)=O [EXCAVATOLIDE V] | 7 (≈ 11.2 µM) | 20.4 (≈ 32.8 µM) | 3.9 (≈ 6.26 µM) | 19.1 (≈ 30.7 µM) |
| CCC(=O)O[C@H]1C[C@H](OC(C)=O)[C@@]2(C)[C@H]([C@H]1C)[C@@H](O)[C@]13O[C@]1(C)C(=O)O[C@H]3/C=C(/C)CC[C@H]2OC(C)=O [EXCAVATOLIDE W] | > 50 | > 50 | 19.4 (≈ 37.1 µM) | > 50 |
